{
  "source": "patent US8911769B2",
  "about": "“Orally disintegrating pharmaceutical composition comprising diclofenac” (Novartis AG, priority 2004, dated 2014)",
  "key": {"[1]": {"test": "Non-aggregation of diclofenac free acid in dispersion (Malvern laser particle size analyzer)", "assay_type": "physicochemical", "method": "For example, the edible film of Example 2 completely disintegrates within 15 seconds. • (b) Plasma levels of diclofenac: The plasma levels of diclofenac are measured in vivo, e.g. in pigs, at different time intervals after oral administration of the edible films. Edible films according to the invention may produce similar plasma levels of diclofenac as a commercially available tablet comprising 12.5 mg diclofenac potassium (Voltaren® Dolo) [AUC (=Area Under the Curve) is essentially the same]. Tmax may be even shorter in edible films than in Voltaren® Dolo—what is desirable in many cases. • (c) Consumer testing of the organoleptic properties of the edible films: The perception of the edible films immediately after administration is tested. An immediate softening and pleasant feeling in the mouth are realized. • (d) Taste evaluation of the edible films: The taste of the edible films is evaluated in vitro with the aid of an “electronic tongue” equipment and also in consumer tests. […] For example, the particle size of—non-micronized or micronized—diclofenac free acid is measured with the aid of a Malvern (UK) laser particle size analyzer equipment before and after processing, under different conditions of manufacture, to an edible film."}, "[2]": {"settings": "in water and ethanol/water mixtures; cited from earlier work"}},
  "data": [
    {"smiles": "O=C(O)Cc1ccccc1Nc1c(Cl)cccc1Cl", "note": "[diclofenac free acid]", "values": [
      {"measurement": "particle size distribution profile, starting material versus released from edible films", "setting": "[1]; before and after processing to an edible film (with ethanol, without ethanol, without ethanol with homogenization), disintegrated in water", "value": "essentially is no difference"},
      {"measurement": "aggregation in dispersion", "setting": "[1]; non-micronized (mean particle size 16 micrometers) or micronized, solvents e.g. water, water/ethanol or ethanol", "value": "no such aggregation does occur"},
      {"measurement": "solubility", "setting": "[2]", "value": "only poorly soluble"}
    ]}
  ]
}
